In this assay the test system is Alternaria solani. The assay is described as follows: Activity against early blight of tomato caused by Alternaria solani (protective spray on potted tomato plants). The following applies: tomato leaves, rated after 5 days, untreated control 72% infection. The format is in vivo. As for the experimental part:
The active compounds, separately or together, were prepared as a stock solution with 0.25% by weight of active compound in acetone or DMSO. 1% by weight of the emulsifier Uniperol® EL (wetting agent having emulsifying and dispersing action based on ethoxylated alkylphenols) was added to this solution, and the solution was diluted with water to the desired concentration.
Use example: Activity against early blight of tomato caused by Alternaria solani
Leaves of potted plants of the cultivar “Groβe Fleischtomate St. Pierre” were sprayed to runoff point with an aqueous suspension having the concentration of active compound stated below. The next day, the leaves were infected with an aqueous spore suspension of Alternaria solani in a 2% strength biomalt solution having a density of 0.17×10^6 spores/ml. The plants were then placed in a water-vapor-saturated chamber at 20–22° C. After 5 days, the early blight on the untreated, but infected control plants had developed to such an extent that the infection could be determined visually in %.
Evaluation is carried out by determining the infected leaf areas in percent. These percentages are converted into efficacies.
The efficacy (E) is calculated as follows using Abbot's formula: E=(1−α/β)·100 • α corresponds to the fungal infection of the treated plants in % and • β corresponds to the fungal infection of the untreated (control) plants in %
An efficacy of 0 means that the infection level of the treated plants corresponds to that of the untreated control plants; an efficacy of 100 means that the treated plants were not infected.
The expected efficacies of the active compound mixtures are determined using Colby's formula [S.R. Colby, Weeds 15, 20–22 (1967)] and compared with the observed efficacies.
Colby's Formula: E=x+y−x·y/100 • E expected efficacy, expressed in percent of the untreated control, when using the mixture of the active compounds A and B at the concentrations a and b • x efficacy, expressed in % of the untreated control, when using active compound A at a concentration of a • y efficacy, expressed in % of the untreated control, when using active compound B at a concentration of b

[1] abbreviates: 8 ppm active compound in the spray liquid.
Where [2] appears, read: 16 ppm active compound in the spray liquid.
The mark [3] stands for this setting: 31 ppm active compound in the spray liquid.
Where [4] appears, read: 63 ppm active compound in the spray liquid.

Take `N#Cc1sc2c(=O)c3ccccc3c(=O)c=2sc1C#N` [I, dithianon]: the “Efficacy in % of the untreated control” value by setting is: under setting [1], 44%; under setting [2], 65%; under setting [3], 79%; under setting [4], 86%.
`Cc1cc(C)nc(Nc2ccccc2)n1` [II-1, pyrimethanil]: the “Efficacy in % of the untreated control” value under setting [1] was found to be 0%, the “Efficacy in % of the untreated control” value under setting [2] amounted to 0%, the “Efficacy in % of the untreated control” value under setting [3] amounted to 0% and the “Efficacy in % of the untreated control” value under setting [4] came to 0%.
Turning to `Cc1cc(C2CC2)nc(Nc2ccccc2)n1` [II-2, cyprodinil], the “Efficacy in % of the untreated control” value reads like this: under setting [1], 44%; under setting [2], 72%; under setting [4], 86%.

The values are drawn from US6979666B2, “Dithianon-based fungicidal mixtures” (BASF Aktiengesellschaft, priority 2002, dated 2005).
